Columns and labels:
[1] = target: binding between Nrf2 and Keap1 (Homo sapiens (Human), UniProt Q14145); test: FP assay (in vitro): inhibition of Nrf2-Keap1 binding by fluorescence polarization; conditions: GST-fused human Keap1 (325-642) 20 nM, FITC-labeled Nrf2 peptide 10 nM, 2 hr at room temperature
[2] = system: NQO1 activity in Hepa1c1c7 cells; test: NAD(P)H: quinone oxidoreductase-1 (NQO1) enzyme induction assay (in vitro); type: cell-based, mouse; conditions: about 48 hr; for fold induction at 0.4 µM: Mus musculus, Hepa-1c1c7, NQO1 activity with 400 nM test compound as a ratio from the base without compound
Description: The NQO1 assay was performed based on a previous report (Methods in Enzymology 2004; 382: 243-258). Hepa1c1c7 cells (mouse hepatocyte cell line, ATCC, cat. no. CRL-2026) were cultured in D-MEM medium containing 10% FBS and 1% penicillin/streptomycin (5% CO2, 37° C.), and seeded into 96-well plates (Corning REF. 353072) at 1×10^4 cells/well. A portion of the wells were prepared with medium only for background measurement without seeding cells. The next day, 400 nM of the test compound (0.004% of the final concentration in DMSO) dissolved in DMSO was added thereto, and the wells were incubated for about 48 hr. A well without adding the test compound was prepared for base activity assay in part. […] After the medium was removed, 50 μL of the cell lysate was added and incubated at 37° C. for 10 minutes, followed by shaking at room temperature for 10 minutes. 200 μL of reaction solution was added thereto, and allowed to stand for 5 minutes at room temperature. 50 μL of the stop solution was added thereto, and absorbance was measured at 610 nm on a SpectraMax PLUS384 (Molecular devices) or […] Pharma Biomedical). The test results were analyzed in Excel, and the NQO1 activity upon addition of 400 nM of test compound was calculated as a ratio from the base without the compound. NQO1 activity ratio when test compound is added=(absorbance when test compound is added-absorbance of medium only)/(absorbance without addition of compound-absorbance of medium only) [numerical formula 2] The results of each test compound in this test are shown in the following Table 2 (A:5<NQO1 activity ratio, B:3<NQO1 activity ratio≤5).

Chain of binding between Nrf2 and Keap1 (Q14145 325-624 limits assumed): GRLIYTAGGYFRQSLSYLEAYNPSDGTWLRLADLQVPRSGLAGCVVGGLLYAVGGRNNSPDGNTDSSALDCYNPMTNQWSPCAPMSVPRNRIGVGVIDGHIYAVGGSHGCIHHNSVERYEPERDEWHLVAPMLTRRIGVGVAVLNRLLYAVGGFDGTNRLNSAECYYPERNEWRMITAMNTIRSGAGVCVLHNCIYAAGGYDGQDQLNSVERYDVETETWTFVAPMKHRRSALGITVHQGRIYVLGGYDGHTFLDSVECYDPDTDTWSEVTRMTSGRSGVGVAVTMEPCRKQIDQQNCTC

Cc1c([C@H](CC(=O)O)c2cc(CN3C[C@@H](C4CC4)Oc4ccc(O)nc4C3C)c3sccc3c2)cnc2c1nnn2C (single isomer, unassigned) [Example 86, (3R)-3-(7-{[(2R,5S*)-2-Cyclopropyl-7-hydroxy-5-methyl-2,3-dihydropyrido[2,3-f][1,4]oxazepin-4(5H)-yl]methyl}-1-benzothiophen-5-yl)-3-(3,7-dimethyl-3H-[1,2,3]triazolo[4,5-b]pyridin-6-yl)propanoic acid]
IC50 [1]: 30 to 100 nM | activity ratio ([2]; NQO1 activity with 400 nM test compound as a ratio from the base without compound): A (5<NQO1 activity ratio)

Cc1c([C@H](CC(=O)O)c2cc(CN3CC4(CC4)Oc4ccc(O)nc4[C@H]3C)c3sccc3c2)ccc2c1nnn2C (single isomer, unassigned) [Example 88, (3R)-3-(1,4-Dimethyl-1H-benzotriazol-5-yl)-3-(7-{[(5′R*)-7′-hydroxy-5′-methyl-3′H-spiro[cyclopropane-1,2′-pyrido[2,3-f][1,4]oxazepin]-4′(5′H)-yl]methyl}-1-benzothiophen-5-yl)propanoic acid]
IC50 [1]: 10 to 30 nM | fold induction at 0.4 µM [2]: > 5

CC[C@@H]1CN(Cc2cc(C(CC(=O)O)c3cc(O)c4c(nnn4C)c3C)cc3ccsc23)[C@@H](C)c2ncccc2O1 (single isomer, unassigned) [Example 93, (3S*)-3-(7-{[(2R,5S)-2-Ethyl-5-methyl-2,3-dihydropyrido[2,3-f][1,4]oxazepin-4(5H)-yl]methyl}-1-benzothiophen-5-yl)-3-(7-hydroxy-1,4-dimethyl-1H-benzotriazol-5-yl)propanoic acid]
IC50 [1]: ≤ 10 nM | fold induction at 0.4 µM [2]: > 5

CC[C@@H]1CN(Cc2cc([C@@H](CC(=O)O)c3cc(O)c4c(nnn4C)c3C)cc3ccsc23)[C@@H](C)c2ncccc2O1 (single isomer, unassigned) [Example 94, (3R*)-3-(7-{[(2R,5S)-2-Ethyl-5-methyl-2,3-dihydropyrido[2,3-f][1,4]oxazepin-4(5H)-yl]methyl}-1-benzothiophen-5-yl)-3-(7-hydroxy-1,4-dimethyl-1H-benzotriazol-5-yl)propanoic acid]
IC50 [1]: ≤ 10 nM | fold induction at 0.4 µM [2]: > 5

CC[C@@H]1CN(Cc2cc(C(CC(=O)O)c3ccc4c(nnn4C)c3C)cc3ccsc23)S(=O)(=O)c2cc(Cl)cnc2O1 (stereo partly drawn) [Example 1, 3-(7-{[(4R)-8-Chloro-4-ethyl-1,1-dioxido-3,4-dihydro-2H-pyrido[2,3-b][1,4,5]oxathiazepin-2-yl]methyl}-1-benzothiophen-5-yl)-3-(1,4-dimethyl-1H-benzotriazol-5-yl)propanoic acid]
IC50 [1]: 30 to 100 nM | fold induction at 0.4 µM [2]: > 5

CC[C@@H]1CN(Cc2cc(C(CC(=O)O)c3ccc4c(nnn4C)c3Cl)cc3ccsc23)S(=O)(=O)c2cc(Cl)cnc2O1 (stereo partly drawn) [Example 2, 3-(7-{[(4R)-8-Chloro-4-ethyl-1,1-dioxido-3,4-dihydro-2H-pyrido[2,3-b][1,4,5]oxathiazepin-2-yl]methyl}-1-benzothiophen-5-yl)-3-(4-chloro-1-methyl-1H-benzotriazol-5-yl)propanoic acid]
IC50 [1]: 10 to 30 nM | fold induction at 0.4 µM [2]: > 5

CC[C@@H]1CN(Cc2cc(C(CC(=O)O)c3ccc4c(nnn4C)c3C)cc3c2CCC3)S(=O)(=O)c2cc(Cl)cnc2O1 (stereo partly drawn) [Example 3, 3-(7-{[(4R)-8-Chloro-4-ethyl-1,1-dioxido-3,4-dihydro-2H-pyrido[2,3-b][1,4,5]oxathiazepin-2-yl]methyl}-2,3-dihydro-1H-inden-5-yl)-3-(1,4-dimethyl-1H-benzotriazol-5-yl)propanoic acid]
IC50 [1]: ≤ 10 nM | fold induction at 0.4 µM [2]: > 5

C[C@@H]1CN(Cc2cc(C(CC(=O)O)c3ccc4c(nnn4C)c3F)cc3c2CCC3)S(=O)(=O)c2ccccc2O1 (stereo partly drawn) [Example 6, 3-(4-Fluoro-1-methyl-1H-benzotriazol-5-yl)-3-(7-{[(4R)-4-methyl-1,1-dioxido-3,4-dihydro-2H-5,1,2-benzoxathiazepin-2-yl]methyl}-2,3-dihydro-1H-inden-5-yl)propanoic acid]
IC50 [1]: ≤ 10 nM | fold induction at 0.4 µM [2]: > 5

— US20250092064A1, “BENZOTRIAZOLE COMPOUND” (DAIICHI SANKYO COMPANY, LIMITED, priority 2022, published 2025)
